Results as given in PubChem BioAssay AID2305 (GlaxoSmithKline (GSK), 2010).

Tested on: P. falciparum 3D7 growth, pLDH absorbance
Assay: P. falciparum 3D7 growth inhibition, dose response, strain 3D7 (AID 2305)

Row | SMILES | IC50 [nM]
1 | COc1ccc(C2(CNCC(O)c3cccc([N+](=O)[O-])c3)CCCC2)cc1OC (configuration not stated) | 890
2 | O=C(/C=C/c1ccc(Cl)c(Cl)c1)NCCCCCN1CC[C@H](NC(=O)c2sc3ccccc3c2Cl)C1 | 810
3 | O=C(NCCc1ccccc1)N(Cc1ccc(-c2cccc(CN3CCNCC3)c2)cc1)C1CCN(Cc2ccccc2)CC1 | 1360
4 | O=[N+]([O-])c1nc(Br)n(Cc2ccc(Cl)cc2)n1 | 360
5 | COc1ccc2c(OC)cccc2c1CNCCCCCCNCc1c(OC)ccc2c(OC)cccc12 | 690
6 | COc1ccc2c(c1CNCCCCCCNCc1c(OC)ccc3c1CCCC3)CCCC2 | 910
7 | Nc1nc(N)c2c(Oc3cccnc3)cccc2n1 | 890
8 | COc1ccc(C(=O)CCC(=O)N(Cc2ccc(-c3ccc(CNCCc4ccc(S(C)(=O)=O)cc4)cn3)cc2)Cc2ccc3c(c2)OCO3)cc1F | 940
9 | COc1ccccc1CCNc1nc(C)cc(N[C@@H](CC(C)C)C(=O)NCCc2ccccc2)n1 | 720
10 | COC(=O)C1=CNC=C(C(=O)OC)C1c1ccc(Cl)c([N+](=O)[O-])c1 | 680
11 | C=C[C@]1(C)C[C@@H](OC(=O)CS[C@H]2CN3CC[C@H]2C3)[C@@]2(C)C3C(=O)CC[C@@]3(CC[C@H]2C)[C@@H](C)[C@@H]1O (some centres not stated) | 690
12 | O=C(C=Cc1ccccc1O)N1CCC(CN2CCC(c3c[nH]c4ccccc34)CC2)CC1 | 960
13 | C/C=C/C=C/C1=NCCc2cc(OCCC)ccc21 | 910
14 | CCOc1cc(C(=O)NCCc2ccc(Cl)c(Cl)c2)ccc1-c1nc2ccc(Cl)cc2[nH]1 | 890
15 | CS(=O)(=O)NCCCNCc1cccc(-c2ccc(-c3nc4ccc(C(F)(F)F)cc4[nH]3)s2)c1 | 880
16 | COc1ccc(CNC2CCN(C)CC2)cc1-c1ccc(S(=O)(=O)NCCc2ccccn2)cc1 | 1090
17 | C[C@@H]1CN(c2cnn(Cc3cccc(NC(=O)Nc4cccc(C(F)(F)F)c4)c3)c(=O)c2Cl)C[C@H](C)N1 | 820
18 | COc1ccc2nc(N3CCN(C(=O)OC(C)(C)C)CC3)nc(NCCCc3ccccc3)c2c1 | 690
19 | Cc1ccc(NC(=O)c2ccc3ncccc3c2)cc1OC1CCN(Cc2ccsc2)C1 (configuration not stated) | 800

Row | SMILES | IC50 [nM]
20 | COc1ccc(NC(=O)[C@H](CC(C)C)Nc2ccnc(Nc3ccccc3)n2)cc1 | 1570
21 | COc1ccc2nc(SC(C)C(=O)c3c[nH]c4ccccc34)[nH]c2c1 (configuration not stated) | 1280
22 | CC(C)Nc1cc(C(=O)N[C@@H](Cc2ccccc2)[C@H](O)CNC2CCOCC2)c(F)c(N2CCCCS2(=O)=O)c1 | 180
23 | C=CCOC(=O)N1CCC(CNCc2cccc(-c3cccc(-c4nc5c(C)cccc5[nH]4)c3)c2)C1 (configuration not stated) | 110
24 | CCN1CCC(NCc2ccc(-c3ccc(Cl)s3)cc2)CC1 | 940
25 | Cc1cc(C(=O)Nc2ccc3c(c2)CCN3C2CCN(Cc3cccc4cc[nH]c34)C2)no1 (configuration not stated) | 190
26 | Cc1cc(N[C@@H](Cc2ccccc2)C(=O)NCc2cccc(F)c2)nc(NCCc2ccccc2)n1 | 1020
27 | CCCCCCCc1c(C)[nH]c2cccc(OC)c2c1=O | 1130
28 | Cc1cnc(C(=O)Nc2cccc(-c3cccc(-c4nc5c(C)cccc5[nH]4)c3)c2)cn1 | 580
29 | c1ccc(CCNc2nc(NCC(c3ccccc3)c3ccccc3)c3[nH]cnc3n2)cc1 | 620
30 | CC(C)Cn1cc(C2CCN(CCN3CCC(CNC(=O)c4ccc(-c5ccc(C#N)cc5)cc4)CC3)CC2)c2ccccc21 | 790
31 | C[C@@H](C(N)=O)N1CCCCC1c1ccc(OCc2cccc(F)c2)cc1 (some centres not stated) | 990
32 | O=C(Cc1ccccc1)NC1(c2ccccc2)CCN(CCc2c[nH]c3ccc(F)cc23)CC1 | 880
33 | Cc1cccc2[nH]c(-c3ccc(-c4cccc(CN5CCN(CCO)CC5)c4)cc3)nc12 | 730
34 | CCn1ccc2c(N3CCCCS3(=O)=O)cc(C(=O)N[C@@H](Cc3ccccc3)[C@H](O)CNC(C)(C)CCCC(C)C)cc21 | 420
35 | CC(=O)Nc1nc(-c2ccccc2)[nH]c1C(N)=O | 250
36 | O=C(Nc1cccc(F)c1)NC1CCN(CCCCCNC(=O)[C@@H]2C[C@H]2c2ccc(Cl)c(Cl)c2)CC1 | 760
37 | COc1ccc2nccc([C@@H](O)CN3CCC(NCc4cc5ccccc5nn4)CC3)c2c1 | 1200
